According to the NIST ThermoML archive (doi:10.1021/acs.jced.8b01217):

Conditions: Liquid, Ebulliometric method (Recirculating still)

O [water]
Conditions | vapor or sublimation pressure [kPa]
310.81 K | 6.424
327.62 K | 15.58
339.92 K | 27.15
349.24 K | 41.77
353.35 K | 47.72
357.89 K | 57.67
362.48 K | 68.16
366.81 K | 80.61
370.97 K | 93.23
375.04 K | 107.24
